Measured values from the NIST ThermoML archive (doi:10.1021/acs.jced.6b00178).
Numbers after ± are expanded uncertainties.

Assay: xn = mol fraction of the nth substance listed
Conditions: 100 kPa, Liquid; for viscosity: Concentric cylinders viscometry; for mass density: Vibrating tube method

CCCCn1cc[n+](C)c1.N#CN=C=[N-] [1-butyl-3-methylimidazolium dicyanamide] + CCCC[n+]1ccn(C)c1.O=S(=O)([N-]S(=O)(=O)C(F)(F)F)C(F)(F)F
Conditions | mass density, x2 = 0 [kg/m3] | mass density, x2 = 0.251 [kg/m3] | mass density, x2 = 0.457 [kg/m3] | mass density, x2 = 0.749 [kg/m3] | viscosity, x2 = 0 [mPa·s] | viscosity, x2 = 0.251 [mPa·s] | viscosity, x2 = 0.457 [mPa·s] | viscosity, x2 = 0.749 [mPa·s]
283.15 K | 1070 ± 1 | 1194.3 ± 1 | 1280.8 ± 1 | 1381.8 ± 0.9 | 58.35 ± 3 | 72.33 ± 3.7 | 82.5 ± 4.2 | 95.81 ± 4.9
288.15 K | 1066.7 ± 1 | 1190.5 ± 1 | 1276.6 ± 1 | 1377.2 ± 0.9 | 45.91 ± 2.3 | 56.47 ± 2.9 | 64.11 ± 3.3 | 73.99 ± 3.7
293.15 K | 1063.4 ± 1 | 1186.7 ± 1 | 1272.5 ± 1 | 1372.7 ± 0.9 | 36.83 ± 1.9 | 44.98 ± 2.3 | 50.83 ± 2.6 | 58.31 ± 2.9
298.15 K | 1060.2 ± 1 | 1183 ± 1 | 1268.5 ± 1 | 1368.1 ± 0.9 | 30.08 ± 1.5 | 36.45 ± 1.9 | 41.02 ± 2.1 | 46.82 ± 2.4
303.15 K | 1057 ± 1 | 1179.3 ± 1 | 1264.4 ± 1 | 1363.6 ± 0.9 | 24.94 ± 1.3 | 30.02 ± 1.5 | 33.66 ± 1.7 | 38.18 ± 1.9
308.15 K | 1053.8 ± 1 | 1175.7 ± 1 | 1260.4 ± 1 | 1359.2 ± 0.8 | 20.98 ± 1.1 | 25.08 ± 1.3 | 28.01 ± 1.4 | 31.61 ± 1.6
313.15 K | 1050.6 ± 1 | 1172 ± 1 | 1256.4 ± 1 | 1354.7 ± 0.8 | 17.86 ± 0.91 | 21.22 ± 1.1 | 23.6 ± 1.2 | 26.5 ± 1.3
318.15 K | 1047.5 ± 1 | 1168.4 ± 1 | 1252.4 ± 0.9 | 1350.3 ± 0.8 | 15.38 ± 0.79 | 18.16 ± 0.92 | 20.12 ± 1 | 22.48 ± 1.1
323.15 K | 1044.4 ± 1 | 1164.9 ± 1 | 1248.5 ± 0.9 | 1345.9 ± 0.8 | 13.38 ± 0.68 | 15.7 ± 0.8 | 17.33 ± 0.88 | 19.27 ± 0.97
328.15 K | 1041.3 ± 1 | 1161.3 ± 1 | 1244.6 ± 0.9 | 1341.5 ± 0.8 | 11.74 ± 0.6 | 13.69 ± 0.7 | 15.06 ± 0.76 | 16.68 ± 0.84
333.15 K | 1038.2 ± 1 | 1157.8 ± 1 | 1240.7 ± 0.9 | 1337.2 ± 0.8 | 10.38 ± 0.53 | 12.05 ± 0.61 | 13.27 ± 0.67 | 14.56 ± 0.74
338.15 K | 1035.2 ± 1 | 1154.3 ± 1 | 1236.8 ± 0.9 | 1332.9 ± 0.8 | 9.251 ± 0.47 | 10.68 ± 0.54 | 11.72 ± 0.59 | 12.82 ± 0.65
343.15 K | 1032.1 ± 1 | 1150.8 ± 1 | 1233 ± 0.9 | 1328.6 ± 0.8 | 8.298 ± 0.42 | 9.53 ± 0.48 | 10.43 ± 0.53 | 11.36 ± 0.57
348.15 K | 1029.1 ± 1 | 1147.3 ± 1 | 1229.2 ± 0.9 | 1324.3 ± 0.8 | 7.488 ± 0.38 | 8.56 ± 0.44 | 9.335 ± 0.47 | 10.14 ± 0.51
353.15 K | 1026.1 ± 1 | 1143.8 ± 1 | 1225.4 ± 0.9 | 1320 ± 0.8 | 6.794 ± 0.35 | 7.728 ± 0.39 | 8.408 ± 0.43 | 9.098 ± 0.46
358.15 K | 1023.2 ± 1 | 1140.4 ± 1 | 1221.6 ± 0.9 | 1315.8 ± 0.8 | 6.196 ± 0.32 | 7.016 ± 0.36 | 7.615 ± 0.39 | 8.211 ± 0.41
363.15 K | 1020.3 ± 0.9 | 1137 ± 1 | 1217.9 ± 0.9 | 1311.6 ± 0.8 | 5.677 ± 0.29 | 6.403 ± 0.33 | 6.932 ± 0.35 | 7.449 ± 0.38
